Measured values reported in patent US20160279190A1, “MODULATION OF AXON DEGENERATION” (GENENTECH, INC., priority 2008, published 2016).

Assays:
DRGs = experiment: anti-NGF antibody (NGF withdrawal) screen for inhibitors of neuron or axon degeneration; format: cell-based, mouse; details: inhibitor 100 μM or 10 μM added 1 hour before 25 μg/ml anti-NGF antibodies; 20 hours; actin staining
Method: The anti-NGF antibody model described above in Example 1 was used in a screen for inhibitors of neuron or axon degeneration. A library of more than 400 small molecules (Tocris Bioscience) was tested to see which, if any, modulate degeneration observed in the presence of anti-NGF antibodies.
Mouse E13.5 embryos were dissected and placed into L15 medium (Invitrogen). The spinal cord was dissected out from the embryos with DRGs attached. The spinal cords with DRGs attached were placed into L15 medium+5% goat serum (Gibco) on ice. The DRGs were removed using a tungsten needle and the remaining spinal cord was disposed of. Eight well slides were filled with N3-F12 solution (23 ml Ham's F12, 1 ml N3 supplement, and 1 ml 1 M glucose) to which was added 25 ng/ml NGF (Roche). (N3 supplement was made by dilution of N3 100× concentrate, which was made by mixing the following ingredients, in the following order: 5.0 ml Hank's buffered saline solution (HBSS; Ca, Mg free; Invitrogen), 1.0 ml bovine serum albumin (10 mg/ml in HBSS=150 μm), 2.0 ml Transferrin (T1147-1G, human, 100 mg/ml in HBSS=1.1 mM), 1.0 ml sodium selenite (S9133-1MG, 0.01 mg/ml in HBSS=58 μM), 0.4 ml putrescine dihydrochloride (P5780-5G, 80 mg/ml in HBSS=500 mM), 0.2 ml progesterone (P8783-5G, 0.125 mg/ml in absolute ethanol=400 μM), 0.02 ml corticosterone (C2505-500MG, 2 mg/ml in absolute ethanol=5.8 mM), 0.1 ml triiodothyonine, sodium salt (T6397-100MG, 0.2 mg/ml in 0.01 N NaOH=300 μM), 0.4 ml insulin (16634-250MG, bovine pancreas, 241 U/mg, 25 mg/ml in 20 mM HCl=4.4 mM), for a total volume of 10.02 ml (can be stored at −20° C.). An N3 supplement stock was made by combining the following: 10 ml Pen/Strep (100×, Gibco), 10 ml glutamine (200 mM, Gibco), 10 ml MEM vitamins (100×, Gibco), 10 ml N3 concentrate (100×, see above), for a total volume of 40 ml. The mixture was filter sterilized using a 0.22 μm filter, and 1-2 ml aliquots were stored at −20° C.).
The DRGs were sectioned into halves, and placed in the center of each well of an 8-chamber slide (BD Biocoat PDL/Laminin coated glass, Becton Dickinson). The DRGs were permitted to attach to the slide at room temperature for 5-10 minutes, followed by an overnight incubation at 37° C. Inhibitors of choice were added at a concentration of 100 μM (top row) or 10 μM (bottom row) 1 hour before adding anti-NGF antibodies. The anti-NGF antibodies were added to the right half of the slide (4 wells) at a concentration of 25 μg/ml. After incubation for 20 hours at 37° C., the slides were fixed with 30% sucrose/8% paraformaldehyde (PFA) by adding 250 μl of the fix solution directly to the 250 μl of culture medium. (To make the 30% sucrose/8% PFA solution, the following ingredients were added to a 600 ml beaker including a stir bar: 250 ml 16% PFA (cat#15710-S, Electron Microscopy Sciences), 50 ml 10×PBS pH 7.4, and 150 g sucrose. The solution was mixed under low heat until dissolved, and then 6-8 drops of 1 M NaOH were added to bring the pH to 7.4. The volume was then brought to 500 ml with water in a graduated cylinder. The solution was mixed well, placed in aliquots, and frozen.) The slides were fixed for 30 minutes, followed by washing once with PBS. All cells were labeled with an actin stain (Alexa-568 conjugated phalloidin; 1:40; Invitrogen), a membrane dye (DiO; 1:200; Invitrogen), and a DNA stain (Hoechst 33258; 1:10,000; Invitrogen) in 0.1% Triton and 1% goat serum for 2 hours at room temperature. […]

CaMKK = CaMKK activity after ionomycin stimulation, transfected HeLa cells; published source (footnote e, cell marked c); read-out: Cellular IC50; cited from earlier work

SMILES: O=C(O)c1ccc2c3c1cccc3c(=O)n1c3ccccc3nc21 [STO-609]
- Comments (observations on protection against neurodegeneration upon NGF withdrawal) (DRGs): Partial
- IC50 (CaMKK): 3000 nM
